In article PMC12020424, “Identification and Validation of Cyclic Peptides with Mucin-Selective, Location-Specific Binding in the Gastrointestinal Tract” (ACS Nano, 2025):
Bridge positions count the residues as written; N and C are the ends. Ends that are not written are not given here.

Assays:
[1] = system: MUC2-containing intestinal tissue (jejunal); assay: Ex vivo fluorescent binding to small intestine tissue; parameters: species or system porcine; conditions: MUC2-selective peptides to small intestine
Source text: (§1) After identifying the peptide hits for each mucin, we tested their binding in an ex vivo setting (Figure S1), evaluating their interaction with mucin-containing porcine tissue and semiquantitatively representing it through fluorescent imaging (Figure 3a). The cyclic peptides were synthesized and conjugated to a fluorophore, Alexa Fluor 647 (AF647), at the N-terminus to allow fluorescent imaging to be used to semiquantitatively measure the peptides’ ex vivo tissue binding, compared to free AF647 and AF647 conjugated to wheat germ agglutinin (WGA), a known lectin for glycoproteins.[40] […] Porcine GI tissue was used due to its similarity in mucin expression compared to human GI tissue and its capacity to source large surface areas of tissue for experiments.[41],[42] Representative IVIS images are shown in Figure 3b-e, where the first four columns represent the four identified peptides (M2.1–M2.4 in Figure 3b,c, M5.1–M5.4 in Figure 3d,e), the fifth column represents WGA-AF647, and the sixth column represents AF647. The “score” results for the peptide ligands are presented in Figure 3f,g for the mucins of interest, with Tables S2–S5 and Figure S3 detailing results for the other tissues (the equation for calculating the “score” is found in the Materials and Methodssection). […] We also examined selectivity by incubating peptides on nontarget tissues. Figure 3h,i depicts the “selectivity” results for the MUC2-selective and MUC5AC-selective peptides, respectively. Selectivity was calculated by determining the ratio of the “score” for a particular mucin to the sum of the “scores” for all mucins (see the Materials and Methods section for the equation used).
(§2) The top-performing hits from phage display were tested on ex vivo segments of porcine mucin-containing tissues (jejunal, stomach, and esophageal tissues) obtained from local abattoirs or laboratory-maintained pigs. Tissue was used either immediately after acquisition or after storage at −80 °C; tissue was used at most 1 week after acquisition and storage at −80 °C. After acquisition and equilibration to room temperature, the tissue was washed twice with 25 mL (each) of cold 1× PBS to remove undigested food and other debris. After washing and cleaning, the tissue was mounted between two magnetic plates with holes corresponding to a 48-well plate, as previously described,[72] such that the luminal side of the tissue was facing up (Figure S1). After the tissue was mounted, the amount of peptide/protein corresponding to 40 μg of AF647 was suspended in 200 μL of 1× PBS and added to the wells created by the magnetic plates. This was done 3× for each formulation to perform the experiment in triplicate. In addition, plain 1× PBS was added to one well to serve as the background measurement. After the peptides were added, the plate setup was covered with aluminum foil and allowed to incubate for 1 h at room temperature with gentle agitation (50 rpm). After incubation, the nonbinding peptides were removed by pouring out the solutions onto a clean paper towel, and the setup was washed three times by adding 200 μL of 1× PBS to each well and gently agitating the setup for 30 s before removing the washing solution. After washing was complete, fluorescence imaging was performed using an IVIS Spectrum fluorescent imaging system (PerkinElmer), with an automatically calculated exposure time (usually ∼1 s), a 20 cm × 20 cm field of view, and an excitation/emission of 640/680 nm, respectively. The imaging results were analyzed using Living Image software to calculate the total fluorescence intensity for each well, and the results for each hit or control were averaged across different wells. The negative control used was unconjugated AF647, while the positive control was WGA-AF647, since WGA is a known lectin that binds glycoproteins.
(§3) To better account for tissue-to-tissue variability, the results for each trial were reported as scores rather than using the raw fluorescence intensity. […]

[2] = system: MUC5AC-containing stomach tissue; assay: Ex vivo fluorescent binding to stomach tissue; parameters: species or system porcine; conditions: MUC5AC-selective peptides to stomach
Source text: as §1
as §2, with “After the peptides were added, the plate setup was covered with aluminum foil and allowed to incubate for 1 h at room temperature with gentle agitation (50 rpm). After incubation, the nonbinding peptides were removed by pouring out the solutions onto a clean paper towel, and the setup was washed three times by adding 200 μL of 1× PBS to each well and gently agitating the setup for 30 s before removing the washing solution.” left out, “The negative control used was unconjugated AF647, while the positive control was WGA-AF647, since WGA is a known lectin that binds glycoproteins.” left out
as §3

small intestine = assay: In vivo gastrointestinal localization, small intestine; parameters: species or system Sprague–Dawley rats; conditions: AF647 conjugate, oral gavage, 1 mg/kg, fasted rats, n = 6, 6 h, segment fluorescence / sum of esophagus, stomach
Experimental: To measure the gastrointestinal localization of these peptides in vivo, peptides M2.3 and M5.2 with conjugated AF647 dye (as a model drug) were administered via oral gavage to fasted Sprague–Dawley rats, along with unconjugated AF647 dye and WGA-AF647. After 6 h, localization was measured by using fluorescent imaging on the rats’ GI tracts. The major results of the total binding fluorescence and organ-specific binding fluorescence for M2.3, as well as the total binding fluorescence and organ-specific binding fluorescence for M5.2, along with results for the AF647 and WGA-AF647 in each case, are shown in Figure 4, with more detailed results found in Figure S9. All results have been adjusted by subtracting the fluorescence from tissue from untreated rats. […]
All animal studies were carried out under the supervision of MIT’s Division of Comparative Medicine and in compliance with NIH’s Principles of Laboratory Animal Care, following the guidelines set forth by MIT’s Committee on Animal Care. Sprague–Dawley rats (200–300 g, a mix of male and female) were obtained from Charles River Laboratories and allowed to acclimate to their new conditions for 1 week, following which their diet was adjusted to an alfalfa-free diet (AIN-93M, TestDiet) for at least 7 days prior to the study in order to reduce background fluorescence. […]

MUC5AC [3] = target: T1, MUC5AC (Homo sapiens, UniProt P98088); assay: Phage display (CX7C library) against MUC5AC, Sanger sequencing; type: binding; conditions: MUC5AC phage screening, third round of panning, 16 sequenced candidates
Experimental: For each mucin of interest, 5 μg of mucin protein was diluted in 150 μL of Tris-buffered saline (TBS) and added to 2 wells of a microtiter plate. The plate was left overnight in a humidified, sealed container with agitation at 50 rpm. After the overnight mucin coating, the solution was poured out, and 300 μL of blocking buffer was added to the wells for 1 h. After the 1 h waiting period, the blocking buffer was poured out, and the wells were washed three times with 300 μL of Tris-buffered saline with TBST (TBS + 0.1% (v/v) Tween-20) to remove nonspecific binding on the mucin layer coating. Next, 5 μL of the C7C library diluted with 95 μL of TBST was added to each blocked well and placed on shaker for 45 min, before pouring out the nonbinding phage and washing the plate ten times with TBST. A 0.2 M glycine-HCl elution buffer (pH 2.2, 100 μL) was added to each well and placed on a shaker for 20 min to release the mucin-layer binding peptides on the plate as unamplified eluate, with the pH neutralized by 30 μL of neutralization buffer (1 M Tris-HCl, pH 9).
E. coli liquid cultures were prepared by adding E. coli cells to 20 mL of LB media and placing them in shaking conditions at 37 °C and 250 rpm for 2 h and 45 min. The unamplified eluate (1 μL of which was saved for titering) was added to the E. coli cultures under the same conditions for 4 h and 45 min for amplification. […]

MUC5AC [4] = target: T1, MUC5AC; assay: Phage ELISA on MUC5AC; type: binding; conditions: phage clones displaying the peptide, 10^7 PFU/μL, MUC5AC-coated plate, anti-M13/HRP, TMB, 450 nm, blank subtracted, three wells; vs random library and insertless phage
Source text: We next sought to validate the binding efficiency of these identified phage clones. We tested phage clones displaying peptides M2.1, M2.2, M2.3, and M2.4 for binding to MUC2, and phage clones displaying peptides M5.1, M5.2, M5.3, and M5.4 for binding to MUC5AC. We utilized a bacteriophage enzyme-linked immunosorbent assay to test the binding of the peptide hits to the specific target mucins, MUC2 and MUC5AC (Figure 2d). The spectrophotometer reported absorbance values at 450 nm. The intensity of the absorbance signal is proportional to the amount of peptide-mucin binding present in each sample. The negative controls (library samples and insertless samples) served as references for nonspecific binding.
First, mucin was coated onto the surface of a plastic plate overnight using the same process as that performed for the original phage display. The next morning, three wells of each phage clone were prepared, with each phage solution having a titer of 10^7 PFU/μL to ensure a fair comparison between the clones. […]
However, instead of eluting the bound phage, 100 μL of 1:2000 anti-M13/HRP mouse monoclonal antibody was added to each well, and the antibody was allowed to incubate with the wells for 30 min. […] The resulting solutions were analyzed by absorbance spectroscopy at a wavelength of 450 nm to determine the relative amount of phage present in each well.

[5] = scaled between free AF647 (0) and WGA-AF647 (1), mean across trials n = 3

Overall nanoparticle “score” [1, 5]	Selectivity ([1]; score for MUC2 tissue / sum of scores for all mucins, n = 3)	Overall nanoparticle “score” [2, 5]	Selectivity ([2]; score for MUC5AC tissue / sum of scores for all mucins, n = 3)	% Prevalence (MUC5AC [3])	Substance	selectivity for the small intestine vs controls (small intestine)	phage ELISA binding vs negative controls (MUC5AC [4])
1	0.333	1	0.333	–	Alexa Fluor 647-conjugated wheat germ agglutinin [WGA]	did not demonstrate a significant improvement over the free dye	–
–	–	–	–	6.25%	CSSASVEWC (disulfide 1-9 (inferred)) [Peptide M5.4, CX7C cyclic peptide hit for MUC5AC; AF647 conjugated at N-terminus in ex vivo tests]	–	significantly greater binding to MUC5AC than the random library and insertless phage
